“Also recorded” adds a separate entry of the source. Where two headings read alike, the source gives them in different places.
Key:
epilepsy = details: A. J. Gower et al., Eur. J. Pharmacol., 222, (1992), 193-203; cited from earlier work
[1] = system: pentylenetetrazol (PTZ) seizures; assay: pentylenetetrazol (PTZ) seizures in mice; assay type: in vivo, male NMRI mice; details: PTZ 89 mg/kg s.c., i.p. -30 min, 95% confidence interval in parentheses
Procedure: (§1) The effect of Brivaracetam against maximal electroshock seizures (MES) and pentylenetetrazol (PTZ) seizures is evaluated in male NMRI mice (20-30 g; N=10 per group). MES is induced through corneal electrodes delivering a current of 50 mA for a duration 0.2 s inducing tonic hind limb extension in 100% of saline-treated animals.
(§2) PTZ is administered at a dose of 89 mg/kg s.c. which represents a dose inducing clonic convulsions of all four extremities in 97% of saline-treated animals. The mice are pre-treated with either saline or different doses of Brivaracetam (i.p. adm., −30 min.) and the proportion of mice protected against seizures is recorded.

[2] = plasma levels of brivaracetam in the PPR study; assay type: in vivo; details: human
Procedure: (§3) The aim of the placebo-controlled, single blind, multi-centre study is to explore the photoparoxysmal EEG (Electroencephalogram) response (PPR) in photosensitive epileptic subjects after one single oral dose (10, 20, 40 and 80 mg) of brivaracetam (BRV).
(§4) In the study, nineteen Caucasian subjects with photosensitive epilepsy (15 females, 4 males) with stable PPR in at least one eye condition (eyes open, eyes closed, eye closure) are enrolled. During a 3-day period, subjects underwent standardized intermittent photic stimulation (IPS) at different frequencies to define the standard photosensitivity range (SPR) in frequency steps per subject at fixed time points over the day: predose (−0.5 h) and postdose (1, 2, 4, 6, 8, 24, 28, 32, 48, and 72 h). After the placebo baseline day (day 1), single oral doses of BRV are given, starting at 80 mg, with subsequent lowering or increasing of the dose depending on the results per 4 subjects.
Median time to first response is 0.5 hours for all doses, and median duration of response is approximately 28 hours after 10, 20, or 40 mg BRV. The median duration is longer after 80 mg BRV (59.5 h). Time to maximal reduction in SPR is dose related: 1.5, 1.0, 1.0, and 0.5 hours, respectively, for 10, 20, 40, and 80 mg BRV. Plasma levels of brivaracetam (BRV) reach a peak at approximately 2.0 hours. T1/2 is about 8.5 hours. Effect of BRV is still frequently observable with BRV plasma levels below the lower level of quantification.

[3] = system: post-hypoxic myoclonus (auditory stimulus-induced myoclonic jerks); assay: rat cardiac arrest model of post-hypoxic myoclonus; assay type: in vivo, male Sprague-Dawley rats; details: ip at 10, 30, 100 and 300 mg/kg, 48 hours after cardiac arrest; myoclonus score over 3 hours
Procedure: Brivaracetam is evaluated in a rat model of post-hypoxic myoclonus [Truong et al. (1994) Novel rat cardiac arrest model of post-hypoxic myoclonus. Mov. Disord. 9:201-206]. In this model, male Sprague-Dawley rats are subjected to mechanical-induced cardiac arrest for a short duration of time during which cerebral hypoxic insults are induced.
All surgical procedures are performed under deep anaesthesia (ketamine 85 mg/kg ip and xylazine 15 mg/kg ip). The cardiac arrest is initiated and maintained for a duration of 8 minutes by mechanically obstructing all the major cardiac blood vessels including the aorta by hooking up the vessels with an L-shaped loop inserted into the rat body cavity. […]
These animals show jerking movements in response to auditory stimuli and other features of myoclonus that are similar to those observed in human condition. […] The involuntary muscle jerks in response to each stimulus are scored as follows: 0=no jerks; 1=ear twitch; 2=ear and body jerk; 3=ear, head and shoulder jerk; 4=whole body jerk; and 5=whole body jerk with jumping.
Antimyoclonic activity of Brivaracetam, administered ip at 10, 30, 100 and 300 mg/kg, is evaluated 48 hours after the cardiac arrest. The myoclonus score is recorded at 30 min interval over a period of 3 hours after dosing, in groups of 6 rats per dose.

[4] = system: spontaneous spike-and-wave discharges (SWDs); assay: spike-and-wave discharges in Genetic Absence Epilepsy Rats from Strasbourg; assay type: in vivo, male rats from the Genetic Absence Epilepsy Rat Strain; details: 95% confidence interval in parentheses
Procedure: Male rats from the Genetic Absence Epilepsy Rat Strain are implanted with four platinum electrodes into the left and right frontal cortex and left and right occipital cortex, under pentobarbital anaesthesia. Cortical, spontaneous spike-and-wave discharges (SWDs) are recorded bilaterally from the rats placed into Plexiglass boxes, and prevented for falling asleep by gentle sensory stimulation. After a 20-min habituation period, the rats are injected i.p. with either saline or different doses of Brivaracetam and the EEG recorded continuously over consecutive 20-min intervals up to 120 min. The cumulative duration of the SWDs is calculated.

[5] = system: photoparoxysmal EEG response (PPR); assay: photoparoxysmal EEG response (PPR) study in photosensitive epileptic subjects; assay type: in vivo, human (Caucasian subjects with photosensitive epilepsy); details: for Duration of response, Median (Range) / Time to first response, Median (Range): eye-closure condition, response = SPR change of at least 3 frequency steps
Procedure: as §3, §4
A total of 18 subjects are evaluable. One subject appeared to be no longer sensitive on the baseline day and is therefore not evaluable. Under placebo administration almost no SPR changes from pre-dose in “eye-closure” condition are observed. Important SPR changes or even complete abolishment of the photosensitivity windows are observed after BRV administration at all tested doses.
Descriptive statistics (N, Median (range)) for time to first response and duration of response in “eye-closure” condition are given in the Table 3 below. Response is defined as a SPR change of at least 3 frequency steps.

kindled seizures = assay: amygdala kindling in rats; assay type: in vivo, male Sprague-Dawley rats; details: i.p. -60 min, 95% confidence interval in parentheses
Procedure: The effect of brivaracetam on kindled seizures is evaluated in male Sprague-Dawley rats (250-350 g) implanted with a bipolar stimulation/recording electrode into the right basolateral amygdala [AP-2.3, L-4.8, V-8.5 (Paxinos and Watson, 1982)], under pentobarbital anaesthesia. Kindling is induced by once daily stimulation, 5 days per week, with 500 μA monophasic square wave pulses, 50 Hz for 1 s (Löscher et al., 1986). The animals are considered kindled after the appearance of at least 10 consecutive stage 4 or 5 seizures according to the scale of Racine (Racine, 1972). Fully kindled rats (N=8 per group) are stimulated once with the same stimulation parameters as above after administration of saline (i.p., −60 min).
This procedure is repeated two days later, after pre-treatment with either saline or different doses of Brivaracetam (i.p., −60 min).
The behavioural effect of stimulation is graded according to the scale of Racine and the proportion of rats protected against generalised motor seizures (stage <3) is recorded.

DMCM-induced seizures = assay: threshold for DMCM-induced seizures in mice; assay type: in vivo, male NMRI mice; details: for Clonic convulsion DMCM threshold dose / First myoclonic jerks DMCM threshold dose: mean ± S.D.
Procedure: The effect of Brivaracetam on the threshold for DMCM-induced seizures is evaluated in male NMRI mice (25-35 g; N=10 per group). The threshold for induction of myoclonic jerks and clonic convulsions in all four extremities is determined by infusing a concentration of 0.5 mg/ml DMCM into the tail vein of unrestrained freely moving mice at a rate of 0.25 ml/min with an infusion pump and a maximum duration of infusion of 2 min. Saline or different doses of Brivaracetam are administered 30 min before DMCM infusion.

audiogenic seizures = audiogenic seizures in sound-sensitive mice; assay type: in vivo, male genetically sound-sensitive mice; details: i.p. -30 min, 95% confidence interval in parentheses
Procedure: Brivaracetam is tested in male genetically sound-sensitive mice (16-28 g; N=10 per group) responding with wild running, clonic and tonic convulsions to an acoustic stimulation. Audiogenic seizures are induced by an acoustic stimulus (90 dB, 10-20 kHz) applied for 30 s. The mice are pre-treated with either saline or different doses of Brivaracetam (i.p. adm., −30 min.) and the proportion of mice protected against both clonic and tonic convulsions is used as the end point to assess anticonvulsant activity.

[6] = system: maximal electroshock seizures (MES); assay: maximal electroshock seizures (MES) in mice; assay type: in vivo, male NMRI mice; details: i.p. -30 min, 95% confidence interval in parentheses
Procedure: as §1, §2

[7] = 80 mg single oral dose, listed as BRV
[8] = all single doses (10, 20, 40, and 80 mg)

For `CC[C@H](C(N)=O)N1CCCC1=O` [(R)-(+)-α-ethyl-2-oxo-1-pyrrolidine-acetamide], the “Activity in the treatment of epilepsy” value (epilepsy) is listed as “completely devoid of activity”.

With `CCC[C@@H]1CC(=O)N([C@@H](CC)C(N)=O)C1` [Brivaracetam, (2S)-2-[(4R)-2-oxo-4-propylpyrrolidinyl]butanamide] the “Protective effect ED50 value, clonic convulsions” value [1] was 30 (10-87) mg/kg i.p, the half-life ([2]; both sexes, plasma, single oral dose, read-out: T1/2 (converted)) was ~510 min and the half-life ([2]; in vivo, stated as basis of expected effect duration, read-out: half-life of the compound (converted)) was ~462 min. The “Time of peak plasma levels” value ([2]; single oral dose) was “approximately 2.0 hours”, the Antimyoclonic activity [3] was “active” and the “Protective effect ED50 value, duration of spike-and-wave discharges over 2 hours” value [4] was 2.6 (0.85-8.1) mg/kg i.p. For the same molecule, the “Time to maximal reduction in SPR” value ([5]; 10 mg single oral dose) was 1.5 h, the “Duration of response, Median (Range)” value ([5]; 10 mg single oral dose) was 29.3 (7.5; 31.5) h and the “Time to first response, Median (Range)” value ([5]; 10 mg single oral dose) was 0.5 (0.5; 1.0) h. The “Patients with abolishment of EEG response” value ([5]; 10 mg single oral dose, reduction in the fourth patient) was “three out of four”, the “Time to maximal reduction in SPR” value ([5]; 20 mg single oral dose) was 1.0 h and the “Duration of response, Median (Range)” value ([5]; 20 mg single oral dose) was 27.5 (23.0; 31.5) h. The “Time to first response, Median (Range)” value ([5]; 20 mg single oral dose) was 0.5 (0.5; 1.0) h, the “EEG response in all (evaluable) subjects” value ([5]; 20 mg single oral dose, listed as BRV) was “abolished; also recorded: complete suppression” and the “Time to maximal reduction in SPR” value ([5]; 40 mg single oral dose) was 1.0 h. For the same molecule, the “Duration of response, Median (Range)” value ([5]; 40 mg single oral dose) was 27.0 (23.5; 47.5) h, the “Time to first response, Median (Range)” value ([5]; 40 mg single oral dose) was 0.5 (0.5; 1.0) h and the “Time to maximal reduction in SPR” value ([5]; 80 mg single oral dose) was 0.5 h. The “Duration of response, Median (Range)” value ([5]; 80 mg single oral dose) was 59.5 (27.5; 71.5) h, the “Time to first response, Median (Range)” value ([5]; 80 mg single oral dose) was 0.5 (0.5; 0.5) h and the “Duration of response, Median (Range)” value [5, 7] was 59.5 h. For the same molecule, the “EEG response in all (evaluable) subjects” value [5, 7] was “abolished; also recorded: complete suppression”, the “Median duration of response” value ([5]; after 10, 20, or 40 mg single oral dose) was “approximately 28 hours” and the “Median time to first response” value ([5]; all doses (10, 20, 40, 80 mg single oral dose)) was 0.5 h. For the same molecule, the Safety and tolerability ([5]; all doses (10, 20, 40, 80 mg single oral dose), human subjects) was “safe and well tolerated”, the “Subjects with abolished photoparoxysmal EEG response” value [5, 8] was 78% and the “Subjects with reduced photoparoxysmal EEG response” value [5, 8] was 94%. The “Protective effect ED50 value, secondary generalised seizures” value (kindled seizures) was 44 (24-84) mg/kg i.p, the “Clonic convulsion DMCM threshold, change vs control” value (DMCM-induced seizures; Brivaracetam 2.1 mg/kg IP) was “+46%” and the “First myoclonic jerks DMCM threshold, change vs control” value (DMCM-induced seizures; Brivaracetam 2.1 mg/kg IP) was “+6%”. The “Clonic convulsion DMCM threshold dose” value (DMCM-induced seizures; Brivaracetam 2.1 mg/kg IP) was 3.34 ± 0.93 mg/kg, the “First myoclonic jerks DMCM threshold dose” value (DMCM-induced seizures; Brivaracetam 2.1 mg/kg IP) was 1.05 ± 0.14 mg/kg and the “Clonic convulsion DMCM threshold, change vs control” value (DMCM-induced seizures; Brivaracetam 6.8 mg/kg IP) was “+104%”. The “First myoclonic jerks DMCM threshold, change vs control” value (DMCM-induced seizures; Brivaracetam 6.8 mg/kg IP) was “+11%”, the “Clonic convulsion DMCM threshold dose” value (DMCM-induced seizures; Brivaracetam 6.8 mg/kg IP) was 4.68 ± 2.21 mg/kg and the “First myoclonic jerks DMCM threshold dose” value (DMCM-induced seizures; Brivaracetam 6.8 mg/kg IP) was 1.10 ± 0.16 mg/kg. For the same molecule, the “Clonic convulsion DMCM threshold, change vs control” value (DMCM-induced seizures; Brivaracetam 21.2 mg/kg IP) was “+183%”, the “First myoclonic jerks DMCM threshold, change vs control” value (DMCM-induced seizures; Brivaracetam 21.2 mg/kg IP) was “+26%” and the “Clonic convulsion DMCM threshold dose” value (DMCM-induced seizures; Brivaracetam 21.2 mg/kg IP) was 6.47 ± 2.82 mg/kg. The “First myoclonic jerks DMCM threshold dose” value (DMCM-induced seizures; Brivaracetam 21.2 mg/kg IP) was 1.25 ± 0.14 mg/kg, the “Clonic convulsion DMCM threshold, change vs control” value (DMCM-induced seizures; Brivaracetam 67.9 mg/kg IP) was “+182%” and the “First myoclonic jerks DMCM threshold, change vs control” value (DMCM-induced seizures; Brivaracetam 67.9 mg/kg IP) was “+32%”. For the same molecule, the “Clonic convulsion DMCM threshold dose” value (DMCM-induced seizures; Brivaracetam 67.9 mg/kg IP) was 6.46 ± 3.16 mg/kg, the “First myoclonic jerks DMCM threshold dose” value (DMCM-induced seizures; Brivaracetam 67.9 mg/kg IP) was 1.31 ± 0.17 mg/kg and the “Clonic convulsion DMCM threshold, change vs control” value (DMCM-induced seizures; Brivaracetam 212.3 mg/kg IP) was “+213%”. The “First myoclonic jerks DMCM threshold, change vs control” value (DMCM-induced seizures; Brivaracetam 212.3 mg/kg IP) was “+36%”, the “Clonic convulsion DMCM threshold dose” value (DMCM-induced seizures; Brivaracetam 212.3 mg/kg IP) was 7.16 ± 2.98 mg/kg and the “First myoclonic jerks DMCM threshold dose” value (DMCM-induced seizures; Brivaracetam 212.3 mg/kg IP) was 1.35 ± 0.17 mg/kg. For the same molecule, the “Protective effect ED50 value, clonic convulsions” value (audiogenic seizures) was 2.4 (1.4-4.0) mg/kg i.p, the “Protective effect ED50 value, tonic convulsions” value (audiogenic seizures) was 1.4 (0.9-2.1) mg/kg i.p and the “Protective effect ED50 value, tonic hind limb extension” value [6] was 113 (89-136) mg/kg i.p.

Reference: patent US20090131508A1, “Use of 2-Oxo-1-Pyrrolidone Derivatives for the Preparation of a Drug” (UCB PHARMA, S.A., priority 2005, published 2009)
